Experiment: Compatibility of piperaquine with the coacervation process (heating/cooling thermal cycles)
Assay type: physicochemical
Experimental: 1. Methods for Characterization • Particle size distribution (PSD): an amount of microcapsules in the range of 25-50 g of microcapsules is poured into a 100 mL HDPE bottle, 0.2% (w/w) of Syloid 244 (colloidal silicon dioxide, WR Grace, Columbia, Md.) and manually blended for 2 minutes; the mixture of microcapsules and Syloid 244 is sieved then with a digital Octagon apparatus for 10 minutes at amplitude 7. • Bulk density and tapped density of powders is measured according to Method USP 34 <616>. • Dissolution profile: Ph Eur [2.9.3]; apparatus n^o 2; dissolution medium: gastric simulated fluid pH 1.2 0.5% of Tween 80 without pepsin; dissolution medium volume: 900 mL; • dissolution medium temperature: 37±0.5° C.; withdrawal at: 5, 15, 30, 60 and 120 min. • Water content: Karl Fischer titration: Ph. Eur. 2.5.12 Method; following sample titration conditions are applied: sample solvent: methanol:formamide 1:1; sample weight: 50 mg; the value of water content in a sample is expressed as % w/w. • Residual cyclohexane: gas-chromatography (head space analysis). • Photostability Testing: ICH conditions “Q1B: Photostability (Option 1)”. • X-Ray Powder Diffraction (XRPD) measurements are performed on a Philips X'Pert PRO diffractometer (Bragg-Brentano geometry). • IR identity. A compatibility study is carried out on piperaquine to assess the compatibility of the drug with the coacervation process. In particular, piperaquine undergoes heating/cooling cycles mimicking thermal excursions of the process. Then, the following tests are performed both before and after thermal cycles to ascertain the stability of piperaquine: water content analysis (Karl Fisher test); effect of mechanical stress; crystalline structure by XRPD.

Assay (%) (PQP•4H2O) (after thermal cycle): 99.9%
Water content (%) (after thermal cycle): 8.5%
Assay (%) (PQP•4H2O) (before thermal cycle): 99.9%
Water content (%) (before thermal cycle): 8.9%
Effect of heating/cooling cycle on the drug (thermal excursions mimicking the coacervation process): not affected by heating/cooling cycle
Compound: Clc1ccc2c(N3CCN(CCCN4CCN(c5ccnc6cc(Cl)ccc56)CC4)CC3)ccnc2c1 [PQP•4H2O, 4,4′-(1,3-propanediyldi-4,1-piperazinediyl)bis(7-chloroquinoline)phosphate hydrate (1:4:4)]

— patent US20140322296A1, “PIPERAQUINE MICROCAPSULES AND COMPOSITIONS CONTAINING THEM” (Aptalis Pharma S.r.l., priority 2013, published 2014)
